Experimental data reported in patent US11319526B2, “Methods and compositions for making antibodies and antibody derivatives with reduced core fucosylation” (Seagen Inc., priority 2008, dated 2022).
Like-named read-outs stand apart in the source and are kept apart here.

Tests used:
[1] = system: antibody core fucosylation in CHO DG44 cell line producing h1F6; assay: Effect of fucose analogs on antibody core fucosylation (h1F6 from CHO DG44 culture); format: cell-based, Chinese hamster; conditions: day 5; for inhibition at 50 µM: 50 μM fucose analog; for Inhibition at 1 mM / inhibition at 1000 µM: 1 mM fucose analog
Method: Media was supplemented with insulin like growth factor (IGF), penicillin, streptomycin and either 1 mM or 50 μM of the fucose analog (prepared as described supra). On day 5 post inoculation, the culture was centrifuged at 13000 RPM for 5 minutes to pellet cells; antibodies were then purified from supernatant.
(§1) Antibody purification was performed by applying the conditioned media to protein A resin pre-equilibrated with 1× phosphate buffered saline (PBS), pH 7.4. After washing resin with 20 resin bed volumes of 1×PBS, antibodies were eluted with 5 resin bed volumes of Immunopure IgG elution buffer (Pierce Biotechnology, Rockford, Ill.). A 10% volume of 1M tris pH 8.0 was added to neutralize the eluted fraction.

[2] = system: CHO DG44 cell line producing h1F6; assay: Incorporation of fucose analogs into antibodies (h1F6 from CHO DG44 culture); format: cell-based, Chinese hamster
Method: The effects of fucose analogs on antibody core fucosylation were tested at concentrations of […] and 1 mM as follows: A CHO DG44 cell line producing a humanized IgG1 anti-CD70 monoclonal antibody, h1F6 (see International Patent Publication WO 06/113909) was cultured at 7.5×10^5 cells per mL in 2 mLs of CHO culture media at 37°, 5% CO2 and shaking at 100 RPM in a 6 well tissue culture plate. Media was supplemented with insulin like growth factor (IGF), penicillin, streptomycin and either 1 mM or 50 μM of the fucose analog (prepared as described supra). On day 5 post inoculation, the culture was centrifuged at 13000 RPM for 5 minutes to pellet cells; antibodies were then purified from supernatant.
as §1, with “fraction. The amount of non-core fucosylated antibody produced was determined as described in Example 7.” for “fraction.”
Certain other fucose analogs were tested for their ability to be incorporated into antibodies. These fucose analogs were tested at concentrations of 50 μM and 1 mM using the methodology as described above and in Example 7.

[3] = Cricetulus griseus, CHO-DG44, 120 h, Table 1, inhibition of core fucosylation of h1F6, read-out: Inhibition at 50 μM
[4] = Cricetulus griseus, CHO-DG44, 120 h, Table 1, ND = non-core fucosylated antibody not detected due to poor antibody production or inhibition of cell growth
[5] = Cricetulus griseus, CHO-DG44, 120 h, Table 2, read-out: Inhibition at 50 μM
[6] = Cricetulus griseus, CHO-DG44, 120 h, Table 2
[7] = Table 1, inhibition of core fucosylation of h1F6
[8] = Table 1, ND = non-core fucosylated antibody not detected due to poor antibody production or inhibition of cell growth

Structure (SMILES) | inhibition at 50 µM [1, 3] | inhibition at 1000 µM [1, 4] | inhibition at 50 µM [1, 5] | inhibition at 1000 µM [1, 6] | further results
CC(=O)OC1C(C)OC(F)C(F)C1OC(C)=O (stereo not shown) [1,2-difluoro-1,2-didexoy fucose peracetate] |  |  |  |  | inhibition at 50 µM ([1]; Table 2): >80%; Inhibition at 1 mM ([1]; Table 2): >80%
C#C[C@H](OC(C)=O)[C@H]1OC(OC)[C@@H](OC(C)=O)[C@@H]1OC(C)=O (stereo partly drawn) [1-methyl-2,3,4-triacetyl alkynyl fucose, (2R,3R,4S)-2-((S)-1-acetoxyprop-2-ynyl)-5-methoxy-tetrahydrofuran-3,4-diyl Diacetate] | 68% | > 80% |  |  | 
CC(=O)OC1O[C@@H](C)[C@@H](OC(C)=O)[C@@H](OC(C)=O)[C@@H]1Cl (stereo partly drawn) [2-deoxy-2-chlorofucose triacetate, L-2-deoxy-2-chlorofucopyranose-1,3,4-triacetate] |  |  | 17% | > 80% | 
CC(=O)OC1O[C@@H](C)[C@@H](OC(C)=O)[C@@H](OC(C)=O)[C@@H]1F (stereo partly drawn) [2-deoxy-2-fluorofucose peracetate, (3S,4R,5R,6S)-3-fluoro-6-methyl-tetrahydro-2H-pyran-2,4,5-triyl Triacetate] |  |  | > 80% | > 80% | 
C[C@H](O)[C@@H](O)[C@@H](O)[C@H](F)C=O [2-deoxy-2-fluorofucose] |  |  | > 80% | > 80% | 
CC(=O)OC1O[C@@H](COCc2ccccc2)[C@@H](OC(C)=O)[C@@H](OC(C)=O)[C@@H]1OC(C)=O (stereo partly drawn) [5-Benzyloxy fucose peracetate, (3S,4R,5R,6S)-6-(benzyloxymethyl)tetrahydro-2H-pyran-2,3,4,5-tetrayl tetraacetate] |  |  | 0% | 75% | 
CC(=O)OC(C#N)[C@H]1OC(OC(C)=O)[C@@H](OC(C)=O)[C@@H]1OC(C)=O (stereo partly shown) [5-cyanoarabinofuranose tetraacetate] | 5 to 10% |  |  |  | 
CC(=O)OC1OC(C#N)[C@@H](OC(C)=O)[C@@H](OC(C)=O)[C@@H]1OC(C)=O (stereo partly shown) [5-cyanoarabinopyranose tetraacetate] | 20% |  |  |  | 
CC(=O)OC1O[C@@H]([C@]2(C)CO2)[C@@H](OC(C)=O)[C@@H](OC(C)=O)[C@@H]1OC(C)=O (stereo partly drawn) [5-methyloxiran-arabinose tetraacetate, (3S,4R,5S,6R)-6-((S)-2-methyloxiran-2-yl)-tetrahydro-2H-pyran-2,3,4,5-tetrayl tetraacetate] | ~0% | 35 to 40% |  |  | 
CC#CC(OC(C)=O)[C@@H](OC(C)=O)[C@@H](OC(C)=O)[C@@H](C=O)OC(C)=O (stereo partly shown) [5-propynyl fucose tetraacetate, 5-propynylarabinose tetraacetate] | 50% | > 80% |  |  | 
C=CC1OC(OC(C)=O)C(OC(C)=O)C(OC(C)=O)C1OC(C)=O (stereo not shown) [5-vinyl fucose tetraacetate, 5-ethylenylarabinose tetraacetate] |  |  |  |  | inhibition at 50 µM [1, 7]: ~0%; Inhibition at 1 mM [1, 8]: ~4%
CC(=O)OC1O[C@@H](C(F)F)[C@@H](OC(C)=O)[C@@H](OC(C)=O)[C@@H]1OC(C)=O (stereo partly drawn) [6,6-difluorofucose tetraacetate, (3S,4R,5S,6R)-6-(difluoromethyl)tetrahydro-2H-pyran-2,3,4,5-tetrayl Tetraacetate] |  |  | > 80% | > 80% | 
CC(=O)O[C@H]([C@H](OC(C)=O)[C@H](CBr)OC(C)=O)[C@@H](C=O)OC(C)=O [6-bromo-fucose tetraacetate, 6-bromofucose tetraacetate] | 50% | 80% |  |  | % Incorporation ([2]; 50 uM): ~50%; % Incorporation ([2]; 1 mM): (50 uM; 20% at 1 mM)
CC(=O)O[C@H]([C@H](OC(C)=O)[C@H](CCl)OC(C)=O)[C@@H](C=O)OC(C)=O [6-chloro-fucose tetraacetate, 6-chlorofucose tetraacetate] | 20% | 20 to 30% |  |  | 
CC(=O)O[C@H]([C@H](OC(C)=O)[C@H](CC#N)OC(C)=O)[C@@H](C=O)OC(C)=O [6-cyano fucose tetraacetate, 6-cyanofucose tetraacetate] | 30% | > 80% |  |  | 
CC(=O)O[C@H]([C@H](OC(C)=O)[C@H](CI)OC(C)=O)[C@@H](C=O)OC(C)=O [6-iodo-fucose tetraacetate, 6-iodofucose tetraacetate] | 3% | 30% |  |  | 
CC(=O)O[C@@H]1[C@H](C)O[C@H](OC(C)=O)C(F)(F)[C@@H]1OC(C)=O [(2R,4R,5R,6S)-3,3-difluoro-6-methyl-tetrahydro-2H-pyran-2,4,5-triyl Triacetate] |  |  | 0% | 75% | 
CC(=O)O[C@@H]1[C@H](C)O[C@@H](OC(C)=O)C(F)(F)[C@@H]1OC(C)=O [(2S,4R,5R,6S)-3,3-difluoro-6-methyl-tetrahydro-2H-pyran-2,4,5-triyl Triacetate] |  |  | 0% | 64% | 
CC(=O)O[C@H]1C[C@H](OC(C)=O)[C@H](OC(C)=O)[C@H](C)O1 [(2S,4S,5R,6S)-6-methyl-tetrahydro-2H-pyran-2,4,5-triyl Triacetate] |  |  | 0% | 36% | 
C#CC1OC(OC(=O)C(C)(C)C)C(OC(=O)C(C)(C)C)C(OC(=O)C(C)(C)C)C1O (stereo not shown) [Alkynyl fucose 1,2,3-(trimethylacetate), 5-ethynylarabinose 1,2,3-(trimethylacetate)] |  |  |  |  | inhibition at 50 µM [1, 7]: ~0%
C#CC1OC(OC(=O)C(C)(C)C)C(O)C(OC(=O)C(C)(C)C)C1O (stereo not shown) [Alkynyl fucose di(trimethylacetate), 5-ethynylarabinose 1,3-(trimethylacetate)] |  |  |  |  | inhibition at 50 µM [1, 7]: >80%
C#C[C@@H]1OC(OC(=O)c2cccnc2)[C@@H](OC(=O)c2cccnc2)[C@H](OC(=O)c2cccnc2)[C@@H]1OC(=O)c1cccnc1 (stereo partly drawn) [Alkynyl fucose pemicotinate, (3S,4R,5R,6S)-6-ethynyl-tetrahydro-2H-pyran-2,3,4,5-tetrayl Tetranicotinate] | > 80% | > 80% |  |  | 
C#C[C@@H]1OC(OC(=O)CCOCCOC)[C@@H](OC(=O)CCOCCOC)[C@H](OC(=O)CCOCCOC)[C@@H]1OC(=O)CCOCCOC (stereo partly drawn) [Alkynyl fucose per-PEG ester, (3S,4R,5R,6S)-6-ethynyl-tetrahydro-2H-pyran-2,3,4,5-tetrayl tetrakis(3-(2-methoxyethoxy)propanoate)] | > 80% | > 80% |  |  | 
C#C[C@@H]1OC(OC(=O)C(C)C)[C@@H](OC(=O)C(C)C)[C@H](OC(=O)C(C)C)[C@@H]1OC(=O)C(C)C (stereo partly drawn) [Alkynyl fucose perisobutanoate, (3S,4R,5R,6S)-6-ethynyl-tetrahydro-2H-pyran-2,3,4,5-tetrayl tetrakis(2-methylpropanoate)] | > 80% | > 80% |  |  | 
C#C[C@H]1OC(OC(=O)c2ccncc2)[C@@H](OC(=O)c2ccncc2)[C@H](OC(=O)c2ccncc2)[C@@H]1OC(=O)c1ccncc1 (stereo partly drawn) [Alkynyl fucose perisonicotinate, (3S,4R,5R,6R)-6-ethynyl-tetrahydro-2H-pyran-2,3,4,5-tetrayl Tetraisonicotinate] | > 80% | > 80% |  |  | 
C#CC(OC(=O)CCCCC)[C@@H](OC(=O)CCCCC)[C@@H](OC(=O)CCCCC)[C@@H](C=O)OC(=O)CCCCC (stereo partly shown) [Alkynyl fucose tetra-n-hexanoate, 5-ethynylarabinose tetrahexanoate] | > 80% | > 80% |  |  | 
C#C[C@@H]1OC(OC(=O)CC)[C@@H](OC(=O)CC)[C@H](OC(=O)CC)[C@@H]1OC(=O)CC (stereo partly shown) [Alkynyl fucose tetrapropanonate, 5-ethynylarabinose tetrapropropanoate] |  |  |  |  | inhibition at 50 µM [1, 7]: >80%; Inhibition at 1 mM [1, 8]: >80%
C#CC(O)[C@@H](O)[C@@H](O)[C@H](O)C=O (stereo partly shown) [Alkynyl fucose, 5-ethynylarabinose] | > 80% |  |  |  | 
C=C=C[C@@H]1OC(OC(C)=O)[C@@H](OC(C)=O)[C@H](OC(C)=O)[C@@H]1OC(C)=O (stereo partly drawn) [Allene, (3S,4R,5R,6S)-6-(propa-1,2-dienyl)-tetrahydro-2H-pyran-2,3,4,5-tetrayl Tetraacetate] |  |  | 23% | 34% | 
